Broadly, the IC50 is the concentration needed to halve the response being measured.

Consider 6 compounds from US8778643B2, “Methods for increasing lipid levels and producing triacylglycerols in algae” (priority 2012, dated 2014).

Experiment [1] concerns Nannochloropsis salina.
Experiment [2] concerns Nannochloropsis oculata. The experiment can be described thus: Lipid composition of batch culture extracts (fatty acid saturation / PUFA by 1H NMR, MALDI-TOF, GC/MS). The experiment is classed as cell-based. The note with it: N. oculata, 40 nM, n=1.
Procedure: The nonpolar algal extracts were harvested from 500 mL cultures when indicated on growth curves, a minimum of 3 days into stationary phase. […] Cells were crushed and nonpolar lipids were extracted by sonication (Fisher Scientific Model 120 Sonic Dismembrator, ThermoFisher, San Jose) for 1 minute in chloroform, followed by chloroform-methanol extractions, washed with PBS butter, and dried under vacuum.^55-60 The crude non-polar algae extracts were then analyzed by ^1H Nuclear Magnetic Resonance (^1H NMR) for verification of TAG presence and examination of the purity of the extract (determination of level of chlorophyll). The extracts were then divided for analysis; one part for transesterification, one part to save as crude extract, and one part for SPE separation and MALDI-TOF analysis of TAGs.
Triacylglycerols can be isolated by solid-phase extraction (SPE) with 500 mg silica SPE cartridges (Silicycle, Quebec). The nonpolar extract is dissolved in 300 μL hexanes, and loaded on the SPE cartridge primed with hexanes. A mixture of 80:20:1 hexanes/diethyl ether/acetic acid was used as mobile phase to elute the TAGs.^61 SPE removes any chlorophyll in this process. Residual polar fraction containing polar lipids and chlorophyll was obtained by elution with acetone. All extracts and TAG fractions were dried under vacuum and stored under argon in amber vials at −20° C. before spectroscopic analysis. After SPE, the purified TAG fraction was reanalyzed with ^1H NMR spectroscopy for TAG characterization.
The TOF was in Reflectron mode with laser intensity from 5500-6500 Volts. Each acquisition consisted of 2500 shots with a focus mass of 900 Da, and a scan range of m/z 400-1100. Multiple acquisition scans were performed at different laser intensities to determine optimal conditions. Samples for the MALDI-TOF were diluted to 5 mg/mL in hexane, and spotted in the fast-evaporation method in a 1:2 ratio with DHB (2,5-dihydroxybenzoic acid) as the matrix. Re-spotting with methanol allowed for the matrix and sample to mix without hexane interactions, and allowed for better crystal formation. All samples on MALDI plate were allowed to dry before MS analysis. Data was normalized to base peak in all cases.
After the initial weight was recorded, the nonpolar extract set aside for transesterification was dissolved in 3.0 mL of 0.6 M sulfuric acid in methanol and stirred vigorously at 60° C. for 45 minutes.
Initial GC/MS temperature was 50° C. and end was 200° C. over at a one hour period for optimal FAME peak separation.
Peak assignment of fatty acids and their derivatives are based on NMR spectroscopic studies of previously reported algal lipid extracts^9 and comparison to standards such as olive oil (ACROS) and fatty acid mixtures.
We developed a quick and robust method to screen if the screened compound effect fatty acid saturation levels using ^1H NMR spectroscopy. The amount of saturated fatty acids (SFA), monounsaturated fatty acids (MUFAs), and polyunsaturated fatty acids (PUFAs) was determined using peak area ratios.
Calculated based on ^1H NMR integral ratios for the proton signals for the methyl group of PUFA components vs. the methyl groups of monounsaturated and saturated components.
For experiment [3], the system named is Nannochloris sp. The experiment can be described thus: 500 mL batch culture: growth, dry weight and lipid extract (gravimetric). The experiment is classed as cell-based. The note with it: Nannochloris sp., 500 mL culture, 40 nM.
Procedure: (§1) Batch cultures were grown in 500 mL Pyrex media bottles with stirring and air bubbling (homemade manifold with Petco air pump, 2-4% CO2). Incoming air was sterile filtered by Polyvent 4 disposable filters (Whatman, Kent, UK). […] To minimize bacterial contamination, all equipment and materials were autoclaved and media was added to flask in a Purifier Vertical Clean bench (Labconco, Kansas City, Mo.). […] The amount of DMSO is standardized for all experiments to 0.4%.
(§2) For all compound cultures, the 2 mL DMSO stock solution was added to media (without algae) first and mixed well. Control cultures were grown without DMSO. DMSO controls consisted of 0.04-1.0% DMSO. After the addition of algae and media, the container was plugged with a bug stopper vented closure cap and mixed thoroughly. Absorbance is measured immediately for Day 0 analysis. Afterward, absorbance was measured every 1-2 days with a cuvette (1 mL volume) on the Thermo Scientific Genesys 10S V is Spectrophotometer (ThermoFisher, San Jose) at 680 nm.
(§3) Batch cultures were also repeated in triplicate and compared to a control culture grown at the same time. Algae were harvested and lipids were extracted for gravimetric analysis.
(§4) The nonpolar algal extracts were harvested from 500 mL cultures when indicated on growth curves, a minimum of 3 days into stationary phase.
(§5) Cell density was monitored by measuring absorbance at 680 nm every 1-2 days.
(§6) 500-mL cultures were harvested 6 days into stationary phase based on absorbance values. Cells were concentrated by centrifugation and lyophilization to remove water. Nonpolar lipids were extracted by sonication and solvent (chloroform-methanol and PBS buffer). […] Changes in lipid levels for batch cultures were determined by crude lipid extract mass.
In the next experiment the test system is microalgae. The experiment can be described thus: 500 mL batch culture (growth, gravimetric lipids), algae strain not stated. The experiment is classed as cell-based. The note with it: 500 mL batch cultures (Table 30).
For the next experiment, the target named is Diacylglycerol lipase. As to conditions: cited from earlier work.
Experiment [4] relates to Nannochloropsis oculata.
Procedure: (§7) Stock cultures were aerated by stirring with bubbling air (homemade manifold with Petco air pump, 2-4% CO2) or by orbital shaking (Thermo Scientific MAXQ 2000) at a constant speed of 150 rpm at 22±3° C. with a 16:8 hour light/dark cycle. Stocks were kept at stationary phase for use. Algae were prepared as dictated by culture center.
(§8) Compounds were selected based on reported biological activity in non-microalgae organisms. To ensure that compounds retained their quality, they were stored under advised conditions after purchasing from the manufacturer. Solutions of all assay compounds were prepared as 10 mM stock solutions by dissolving in DMSO in 2-dram amber vials and then stored in darkness −20° C. 96-well PCR plates were used to create a stock plate layout that was then transferred to the algae microplates. A plate map was used to distribute each compound to a well based on molecule name, collection number, and CAS number. For 20 μM and 200 nM assay plates, 10 mM compound stock in DMSO was diluted into plate maps of 5 mM and 50 μM assay stocks, respectively.
(§9) All materials for assay experiments were autoclaved before each use to maintain axenic algae cultures. Algae species were checked for homogeneity using a TS-100 light microscope (Nikon, Japan). […] Diluted stock solutions were made immediately prior to use for consistency and optimal plate growth. Cell density was measured on a Thermo Scientific Genesys 10S Vis Spectrophotometer (ThermoFisher, San Jose), using a 1 mL cuvette at 680 nm.
(§10) Plates were originally run in triplicate, before replicates were increased to quadruplicate, along with a separate control plate to compare growth. Due to extensive evaporation in exterior wells over time, our unique algae plate layout was designed to use the 60 interior wells out of 96 wells for the experiment. The 36 outer wells were filled with Millipore water and media to prevent evaporation and edge effects in the inner algae wells, as well as serve as blanks. The 60 wells with algae contained a total volume of 251 μL (100 μL of media+DMSO compound stock +150 μL dilute algae stock). For 20 μM and 200 nM assay plates, 10 mM compound stock in DMSO is diluted into plate maps of 5 mM and 50 μM assay stocks, respectively. […] Plates were parafilmed during growth to limit the amount of evaporation that can occur. Plates were numbered, and numerically ordered to ensure they got the same shaker space.
(§11) The shakers are kept at a constant shaking of 150 rpm. Ambient temperature is 22±3° C.
Experiment [5] relates to Phaeodactylum tricornutum. The experiment can be described thus: Microplate assay: growth (absorbance 680 nm) and intracellular lipids (Nile Red fluorescence). The experiment is classed as cell-based.
Another experiment addresses PTP1b (Homo sapiens, UniProt P18031). As to conditions: cited from earlier work.
Experiment [6] has as its target fatty acid amide hydrolase (Homo sapiens, UniProt O00519). The note with it: cited from earlier work.
The test system of experiment [7] is Nannochloris sp. The experiment can be described thus: Microplate assay: growth (absorbance 680 nm) and intracellular lipids (Nile Red fluorescence). The experiment is classed as cell-based. As to conditions: Nannochloris sp.; for % Increase based on Nile Red Fluorescence Intensity: dissolved in water, added t=day 0.
Procedure: as §7, §8, §9, §10, §11
For experiment [8], the target named is T1, PKA (rat liver catalytic subunit) (Rattus norvegicus, UniProt P27791).
T1 construct: rat liver catalytic subunit; host or cells: rat liver
The note with it: cited from earlier work.

A further experiment deals with PKC. As to conditions: PKC; cited from earlier work.
The next experiment concerns MLCK. The note with it: cited from earlier work.
Experiment [9] has as its system Nannochloropsis salina. The experiment can be described thus: 500 mL batch culture: growth, dry weight and lipid extract (gravimetric). The experiment is classed as cell-based. As to conditions: 40 nM.
Procedure: as §1, §2, §3
Cultures were harvested at day 6 in stationary phase. Cultures were pelleted, lyophilized, and extracted side-by-side. The experiment was performed in triplicate.
The nonpolar algal extracts were harvested from 500 mL cultures when indicated on growth curves, a minimum of 3 days into stationary phase. […] Cells were crushed and nonpolar lipids were extracted by sonication (Fisher Scientific Model 120 Sonic Dismembrator, ThermoFisher, San Jose) for 1 minute in chloroform, followed by chloroform-methanol extractions, washed with PBS butter, and dried under vacuum.^55-60 The crude non-polar algae extracts were then analyzed by ^1H Nuclear Magnetic Resonance (^1H NMR) for verification of TAG presence and examination of the purity of the extract (determination of level of chlorophyll).
as §5, §6
Experiment [10] has as its system microsomal lipid peroxidation. As to conditions: cited from earlier work.
Experiment [11] relates to fatty acid and sterol synthesis. As to conditions: cited from earlier work.
In experiment [12] the test system is Phaeodactylum tricornutum. The experiment can be described thus: 500 mL batch culture: growth, dry weight and lipid extract (gravimetric). The experiment is classed as cell-based. The note with it: P. tricornutum, 500 mL culture, 120 nM.
Procedure: as §1, §2, §3, §4, §5, §6
Setting [13] is: gravimetric, relative to averaged control without DMSO.
Where [14] appears, read: 40 μM, initial microplate screen, relative to control.

Like-named read-outs stand apart in the source and are kept apart here.

Chain of fatty acid amide hydrolase (O00519 whole entry): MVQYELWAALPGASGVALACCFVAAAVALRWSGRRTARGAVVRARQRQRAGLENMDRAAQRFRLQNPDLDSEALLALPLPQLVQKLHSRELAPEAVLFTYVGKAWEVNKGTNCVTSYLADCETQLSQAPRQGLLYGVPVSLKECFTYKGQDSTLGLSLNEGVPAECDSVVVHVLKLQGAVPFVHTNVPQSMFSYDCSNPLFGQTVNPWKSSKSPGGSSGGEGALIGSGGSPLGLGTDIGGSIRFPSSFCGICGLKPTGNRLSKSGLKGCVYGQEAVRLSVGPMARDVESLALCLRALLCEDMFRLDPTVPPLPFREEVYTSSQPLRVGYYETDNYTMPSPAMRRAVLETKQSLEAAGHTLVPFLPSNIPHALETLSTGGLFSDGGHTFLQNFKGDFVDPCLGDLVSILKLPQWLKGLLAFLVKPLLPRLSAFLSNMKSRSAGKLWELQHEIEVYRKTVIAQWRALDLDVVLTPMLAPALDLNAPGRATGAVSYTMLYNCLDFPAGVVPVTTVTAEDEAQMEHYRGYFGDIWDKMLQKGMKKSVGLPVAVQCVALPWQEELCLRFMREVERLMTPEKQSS
Chain of PTP1b (P18031 whole entry, species assumed): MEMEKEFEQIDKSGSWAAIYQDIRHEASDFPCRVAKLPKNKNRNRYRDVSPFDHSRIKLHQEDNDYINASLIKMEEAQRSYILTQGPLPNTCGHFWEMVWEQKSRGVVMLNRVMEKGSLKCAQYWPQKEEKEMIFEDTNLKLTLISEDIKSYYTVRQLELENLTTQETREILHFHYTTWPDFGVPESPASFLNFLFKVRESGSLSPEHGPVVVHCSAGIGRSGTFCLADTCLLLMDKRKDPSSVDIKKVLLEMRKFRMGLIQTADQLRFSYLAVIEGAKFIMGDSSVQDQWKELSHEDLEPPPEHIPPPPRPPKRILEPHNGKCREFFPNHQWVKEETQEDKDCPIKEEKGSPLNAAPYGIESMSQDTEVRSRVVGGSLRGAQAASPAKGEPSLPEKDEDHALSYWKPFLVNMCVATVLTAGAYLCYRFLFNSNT
Procedure for microalgae: as §1, §2, §5, §6

For `CCCCCCCCCCC[C@@H](C[C@@H]1OC(=O)[C@H]1CCCCCC)OC(=O)[C@H](CC(C)C)NC=O` [orlistat, (S)-((S)-1-((2S,3S)-3-hexyl-4-oxooxetan-2-yl)tridecan-2-yl) 2-formamido-4-methylpentanoate], the “% change in abs” value is given as −31.92% in the experiment on Nannochloropsis salina [1] (N. salina, 40 μM) and 0.83% in the experiment with Nannochloropsis oculata [4] (N. oculata, 13 nM). Also, the “% in NR fl” value with Nannochloropsis salina [1] (N. salina, 40 μM) is recorded as 61.76%; in the experiment with Nannochloropsis oculata [4] (N. oculata, 13 nM), 63.67%. Further, in the experiment on Nannochloropsis oculata [2] (Normal 0 ± 1), the “SFAs (%)” value turned out to be 3%. In the experiment with Nannochloropsis oculata [2] (Normal 4 ± 7), the “MUFAs (%)” value was 29%. The “n3 PUFAs (%)” value with Nannochloropsis oculata [2] (Normal 28 ± 4) is 16%. Besides, the “PUFAs (%)” value in the experiment with Nannochloropsis oculata [2] (Normal 96 ± 7) was 68%. In the experiment with Nannochloris sp. [3], this compound showed a Lipid productivity of 5.1 ± 1.5 mgL^−1day^−1. For the same compound, the “Change in Lipids” value in the experiment on Nannochloris sp. [3] (setting [13]) came to 72%. Further, in the experiment on Nannochloris sp. [3] (mid-exponential growth phase), the “Specific Growth Rate” value came out at 0.20 ± 0.01 day⁻¹. In addition, in the experiment with microalgae, the “effect on growth and lipid levels” value was “positive increases in growth and lipid levels”. The IC50 on Diacylglycerol lipase was 1 µM.

Consider `CCN(NO)C1=CC(=O)C(=O)C=C1` [Ethyl 3,4-dephostatin, 4-[(hydroxyamino)-ethylamino]cyclohexa-3,5-diene-1,2-dione], for which the “Absorbance (percent increase)” value in experiment [5] (setting [14]) is listed as −2.4%. Also, the “Nile Red percent increase” value in experiment [5] (setting [14]) came out at 115.0%. The “% increase (lipid production)” value in [5] (0.0252-165.6 nM (H2O)) is on record as 8-106%; in [5] (2-18.4 nM) it was 3-67%; in the experiment on Nannochloropsis salina [1] (0.0252-165.6 nM (H2O)), 8-61%; in the experiment with Nannochloropsis salina [1] (0.0252-165.6 nM, not marked H2O), 8-20%; in the experiment on Nannochloropsis oculata [4] (0.0252-165.6, concentrations giving an increase: (none)), “(none)”. Also, the half-inhibitory concentration (IC50) at PTP1b was 3.2 µM.

As for `CCCCNC(=O)Oc1ccc(OCc2ccccc2)cc1` [FAAH Inhibitor I, 4-Benzyloxyphenyl-n-butylcarbamate], in experiment [6], the IC50 is 0.396 µM. In addition, in the experiment with Nannochloris sp. [7] (0.6 nM, (water), t=day 0), the “% Lipid increase based on Nile red fluorescence intensity” value worked out at 189%. For the same compound, the “% Increase based on Nile Red Fluorescence Intensity” value in the experiment on Nannochloris sp. [7] (0.6 nM) amounted to 189%; in the experiment on Nannochloris sp. [7] (49 nM), 160%; in the experiment on Nannochloris sp. [7] (440 nM), 161%; with Nannochloris sp. [7] (1.3 μM), 152%.

Take `Oc1cc(O)cc(/C=C/c2ccc(O)c(O)c2)c1` [Piceatannol, 3,3′,4,5′-Tetrahydroxy-trans-stilbene]: the “% increase (lipid production)” value in [5] (4-40 μM (H2O)) is listed as 7-41 (H2O) %; in the experiment with Nannochloropsis salina [1] (55-40 μM) it was 0.3-148%. Besides, the “Nile Red percent increase” value with Nannochloropsis salina [1] (40 μM, dose-response microplate screen) was determined as 195%. Also, the results for the IC50 (in experiment [8]; with PKC; in the experiment on MLCK) were 3 µM, 8 µM and 12 µM, respectively.

On to `CCCOC(=O)c1cc(O)c(O)c(O)c1` [propyl gallate, propyl 3,4,5-trihydroxybenzoate], for which the “% Inc” value in the experiment on Nannochloropsis salina [1] (increase of lipid production, N. salina, best conc. 10 nM) came out at 264.42%. Further, the “increase in lipid levels” value with Nannochloropsis salina [9] (batch cultures) is listed as 67%. For the same compound, in the experiment on Nannochloropsis salina [9] (N. salina, 500 mL culture), the Lipid productivity is on record as 8.3 ± 1.7 mgL^−1day^−1. For the same compound, in the experiment with Nannochloropsis salina [9] (N. salina, 500 mL culture, dried lipid extract per dry biomass), the Lipid content came out at 25.9 ± 11.4 % w/w. Further, in the experiment on Nannochloropsis salina [9] (N. salina, 500 mL culture, gravimetric, relative to averaged control without DMSO), the “Change in Lipids” value was found to be 67%. Further, the “Specific Growth Rate” value in the experiment with Nannochloropsis salina [9] (N. salina, 500 mL culture, mid-exponential growth phase) came to 0.23 ± 0.002 day⁻¹. In addition, the IC50 in [10] is 4.5 µM.

For `NC(=O)c1ncn([C@@H]2O[C@H](COP(=O)(O)O)[C@@H](O)[C@H]2O)c1N` [AICAR, [(2R,3S,4R,5R)-5-(4-Carbamoyl-5-amino-imidazol-1-yl)-3,4-dihydroxyoxolan-2-yl]methyl dihydrogen phosphate], the “inhibitor of fatty acid and sterol synthesis (concentration)” value in experiment [11] is listed as “synthesis (0.5 mM), inactivates HMG-CoA reductase”. The compound further gave a Lipid productivity in experiment [12] of 7.0 ± 0.9 mgL^−1day^−1. Further, the Lipid content in experiment [12] (dried lipid extract per dry biomass) is given as 22.7 ± 1.3 % w/w. The “Change in Lipids” value in [12] (setting [13]) is given as 45%. For the same compound, the “Specific Growth Rate” value in [12] (mid-exponential growth phase) was determined as 0.34 ± 0.04 day⁻¹.
